Like-named read-outs stand apart in the source and are kept apart here.
Key:
[1] = molecular target: T1, cMet on H292 endogenous cMet-expressing cell line (Homo sapiens, UniProt P08581); assay: Cellular equilibrium binding by flow cytometry
T1 construct: SNU-5 and H292 endogenous cMet-expressing cell lines; endogenous in cells; host or cells: H292
Method: (§1) The on-cell binding capabilities of ADCs comprising anti-cMet antibodies with either a HomoFc or HetFc backbone (v32634 and v17427, respectively) conjugated to Drug-Linker 002 by stochastic lysine conjugation at approximately DAR 4 and DAR 6 were assessed for cMet binding using SNU-5 and H292 endogenous cMet-expressing cell lines by flow cytometry as described below. Unconjugated anti-RSV antibody palivizumab (v22277) was used as a control.
(§2) Briefly, cells were seeded at 50,000 cells/well in V-bottom 96-well plates and treated with antibody for 24 hours at 4° C. to prevent internalization. Following incubation, cells were washed and stained with anti-human IgG Fc AF647 conjugate (Jackson ImmunoResearch Laboratories, Inc., West Grove, PA; Cat. No. 109-605-098) at 4° C. for 30 min. Following incubation and washing, fluorescence was detected by flow cytometry on a BD LSRFortessa™ Cell Analyzer (BD Biosciences, Franklin Lake, NJ) with 1,000 minimum events collected per well. AF647/APC-A GeoMean (fluorescence signal geometric mean, proportional to anti-Human AF647 binding) in live cell population was plotted using GraphPad Prism Version 8 (GraphPad Software, San Diego, CA).
(§3) The on-cell binding capabilities of the following unconjugated antibodies and ADCs were assessed on SNU-5 and H292 endogenous cMet-expressing cell lines by flow cytometry: unconjugated variant v17427 (HetFc, unmodified hinge), and cysteine insertion variant v29001 (two cysteine insertions), lysine conjugated ADCs comprising variant v17427 and Drug-Linker 002 at DAR 4 or DAR 6, and cysteine conjugated ADCs comprising cysteine insertion variant insertion v29001 conjugated to Drug-Linker 001, Drug-Linker 003 or Drug-Linker 004 at DAR 2, 4 or 6, respectively. […] Cellular binding was determined as described in Example 10.

[2] = molecular target: T2, cMet on SNU-5 endogenous cMet-expressing cell line (Homo sapiens, UniProt P08581); assay: Cellular equilibrium binding by flow cytometry
T2 construct: SNU-5 and H292 endogenous cMet-expressing cell lines; endogenous in cells; host or cells: SNU-5
Method: as §1, §2, §3

[3] = test system: EBC-1; assay: Receptor-mediated internalization, high content imaging; format: cell-based; settings: 5 Hours 37° C.
[4] = test system: HT-29; assay: as above; format: cell-based; settings: 5 Hours 37° C.
[5] = test system: EBC-1 (lung squamous cell carcinoma); assay: In vitro cytotoxicity (cell growth inhibition, CellTiter-Glo); format: cell-based
Method: (§4) The cell growth inhibition (cytotoxicity) capabilities of anti-cMet ADCs comprising variant v17427 (HetFc, unmodified hinge) conjugated to Drug-Linker 001 or MCvcPABC-MMAE by stochastic cysteine conjugation at an average DAR 4 were determined in a panel of four cMet-expressing cell lines as described below. The cell lines were EBC-1 (lung squamous cell carcinoma), H292 (lung carcinoma), BT-20 (breast cancer) and SW48 (colorectal cancer).
(§5) Briefly, cells were seeded in 384-well plates at 1,000-1,500 cells/well density and treated with a titration of test article, generated in complete cell growth medium. Treated cells were incubated for 4-5 days under standard culturing conditions (37° C./5% CO2). After incubation, CellTiter-Glo® reagent (Promega Corporation, Madison, WI; Cat. No. G7570) was spiked into each well and luminescence corresponding to ATP present in each well was measured using a Synergy™ H1 microplate (BioTek Instruments, Winooski, VT). Based on blank wells (no test article added, only blank media), % cytotoxicity values were calculated using ATP measurement RLU values (Relative Light Units) and plotted against test article concentration using GraphPad Prism 8 software (GraphPad Software, San Diego, CA).
(§6) Cytotoxicity was determined as described in Example 6 with treated cells (1,000 cells/well) being incubated for 4 days under standard culturing conditions (37° C./5% CO2).
(§7) The cell growth inhibition capabilities of ADCs comprising anti-cMet antibodies with either a HomoFc or HetFc backbone (v32634 and v17427, respectively) conjugated to Drug-Linker 002 by stochastic lysine conjugation at approximately DAR 4 and DAR 6 were assessed in a panel of four cMet-expressing tumour cell lines and one cMet-negative cell line. The anti-RSV antibody, palivizumab (v22277), conjugated to Drug-Linker 002 at DAR 3.7, and free payload (Compound 1), were used as controls. Cytotoxicity was determined as described in Example 8. Cell lines were SNU-5 (gastric carcinoma), EBC-1 (lung squamous cell carcinoma), H1975 (non-small cell lung cancer), H292 (lung carcinoma) and cMet-negative T-47D (breast cancer).
(§8) The cell growth inhibition capabilities of site-specific cysteine-conjugated ADCs comprising various cysteine insertion antibody variants conjugated to Drug-Linker 001 at approximately DAR 1, 2 or 3, were assessed in a panel of four cMet-expressing tumour cell lines, SNU-5 (gastric carcinoma), EBC-1 (lung squamous cell carcinoma), H292 (lung carcinoma) and H1975 (non-small cell lung cancer), and one cMet-negative cell line, T-47D (breast carcinoma). An ADC comprising the anti-RSV antibody palivizumab (v22277) conjugated to Drug-Linker 001 at approximately DAR 4 was used as a non-targeted control. […] Cytotoxicity was determined as described in Example 7.
(§9) The cell growth inhibition capabilities of ADCs comprising variant v29001, having two cysteine insertions, conjugated to multivalent Drug-Linker 003 or multivalent Drug-Linker 004, were assessed in a panel of cMet-expressing tumour cell lines together with ADCs comprising parental variant v17427 conjugated to the monovalent Drug-Linker 002 at DAR 4 or DAR 6. Cell lines used were SNU-5 (gastric carcinoma), EBC-1 (lung squamous cell carcinoma), H292 (lung carcinoma), H1975 (non-small cell lung cancer) and T-47D (breast carcinoma, cMet-negative). ADCs comprising the anti-RSV antibody palivizumab (v22277) conjugated to Drug-Linker 002 were used as non-targeted controls. Free payload Compound 1 was also included as a control. Cytotoxicity was determined as described in Example 8.

[6] = test system: H292 (lung carcinoma); assay: as above; format: cell-based
Method: as §4, §5, §6, §7, §8, §9

[7] = test system: BT-20 (breast cancer); assay: as above; format: cell-based
Method: as §4
as §5, with “CA). […]” for “CA).”
as §6

[8] = test system: H1975 (non-small cell lung cancer); assay: as above; format: cell-based
Method: as §5
(§10) The cell growth inhibition capabilities of anti-cMet ADCs comprising variant v17427 (HetFc, unmodified hinge) conjugated to Drug-Linker 002 by stochastic lysine conjugation at DARs ranging from DAR 2 to DAR 6 were determined in a panel of seven cMet-expressing cell lines. Variant v17427 conjugated to MCvcPABC-MMAE drug linker at DAR 4, and anti-RSV antibody, palivizumab (v22277), conjugated to Drug-Linker 002 or MCvcPABC-MMAE at DAR 4, were used as controls. Cell lines were SNU-5 (gastric carcinoma), EBC-1 (lung squamous cell carcinoma), HCC827 (lung cancer), H1975 (non-small cell lung cancer), HCT-116 (colorectal cancer), H292 (lung carcinoma) and BT-20 (breast cancer).
as §6, §7, §9

[9] = test system: SNU-5 (gastric carcinoma); assay: as above; format: cell-based; settings: 4 days
Method: as §5, §10, §6, §7, §9

[10] = test system: HCC827 (lung cancer); assay: as above; format: cell-based; settings: 4 days, Table 8.1
Method: as §5
(§11) The cell growth inhibition capabilities of anti-cMet ADCs comprising variant v17427 (HetFc, unmodified hinge) conjugated to Drug-Linker 002 by stochastic lysine conjugation at DARs ranging from DAR 2 to DAR 6 were determined in a panel of seven cMet-expressing cell lines. […]
as §6

[11] = test system: HCT-116 (colorectal cancer); assay: as above; format: cell-based; settings: 4 days, Table 8.1
Method: as §5, §11, §6

[12] = test system: SW48 (colorectal cancer); assay: as above; format: cell-based; settings: Homo sapiens, 4-5 days, Table 6.1, read-out: EC50 (nM) - DAR corrected
Method: as §4, §5

[13] = test system: cMet-negative T-47D (breast cancer); assay: as above; format: cell-based; settings: Homo sapiens, T47D, 96 h
Method: as §5, §6
The cell growth inhibition capabilities of ADCs comprising anti-cMet antibodies with either a HomoFc or HetFc backbone (v32634 and v17427, respectively) conjugated to Drug-Linker 002 by stochastic lysine conjugation at approximately DAR 4 and DAR 6 were assessed in a panel of four cMet-expressing tumour cell lines and one cMet-negative cell line. […] Cytotoxicity was determined as described in Example 8. […]

[14] = test system: cMet-positive non-small cell lung carcinoma (NSCLC); settings: Phase II trials; cited from earlier work
[15] = 24 hours at 4° C., Table 10.1, read-out: Apparent Kd
[16] = Table 13.1, read-out: Apparent Kd

T2 sequence (P08581 25-1390): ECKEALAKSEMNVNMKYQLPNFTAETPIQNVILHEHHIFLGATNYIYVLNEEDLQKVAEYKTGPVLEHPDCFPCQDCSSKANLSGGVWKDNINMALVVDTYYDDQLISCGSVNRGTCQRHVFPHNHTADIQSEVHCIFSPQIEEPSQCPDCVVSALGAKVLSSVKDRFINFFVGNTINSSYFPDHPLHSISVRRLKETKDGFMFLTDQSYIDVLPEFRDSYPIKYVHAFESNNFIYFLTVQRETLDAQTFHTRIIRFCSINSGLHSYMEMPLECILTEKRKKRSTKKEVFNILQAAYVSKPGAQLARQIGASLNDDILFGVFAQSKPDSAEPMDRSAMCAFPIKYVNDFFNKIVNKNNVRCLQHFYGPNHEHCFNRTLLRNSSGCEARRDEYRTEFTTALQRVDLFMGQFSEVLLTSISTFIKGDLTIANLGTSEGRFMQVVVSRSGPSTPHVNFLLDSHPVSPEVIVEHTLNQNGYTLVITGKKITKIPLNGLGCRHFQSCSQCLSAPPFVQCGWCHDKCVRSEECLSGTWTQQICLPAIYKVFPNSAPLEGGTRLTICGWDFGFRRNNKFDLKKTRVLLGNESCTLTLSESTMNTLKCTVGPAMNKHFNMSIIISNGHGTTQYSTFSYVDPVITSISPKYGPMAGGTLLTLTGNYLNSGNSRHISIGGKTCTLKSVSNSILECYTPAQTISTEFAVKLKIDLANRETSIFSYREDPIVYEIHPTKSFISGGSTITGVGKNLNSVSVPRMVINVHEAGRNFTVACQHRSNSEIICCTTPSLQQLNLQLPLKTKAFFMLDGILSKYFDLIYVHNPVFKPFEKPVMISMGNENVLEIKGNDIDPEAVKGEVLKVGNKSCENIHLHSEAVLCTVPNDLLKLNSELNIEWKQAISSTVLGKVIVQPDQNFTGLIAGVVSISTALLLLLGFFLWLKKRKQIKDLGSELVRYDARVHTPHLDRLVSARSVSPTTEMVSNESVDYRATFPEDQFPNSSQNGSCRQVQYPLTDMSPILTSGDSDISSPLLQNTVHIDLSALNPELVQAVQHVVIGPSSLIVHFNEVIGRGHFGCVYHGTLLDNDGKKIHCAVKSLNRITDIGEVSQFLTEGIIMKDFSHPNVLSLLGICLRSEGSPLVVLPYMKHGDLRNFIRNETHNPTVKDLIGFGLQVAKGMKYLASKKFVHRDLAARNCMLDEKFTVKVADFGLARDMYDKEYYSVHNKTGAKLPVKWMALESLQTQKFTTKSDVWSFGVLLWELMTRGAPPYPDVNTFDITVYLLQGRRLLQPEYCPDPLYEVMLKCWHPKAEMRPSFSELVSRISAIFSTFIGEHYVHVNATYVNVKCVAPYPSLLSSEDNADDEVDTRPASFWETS
T1 sequence (P08581 25-1390): as above

Molecule: v22277: anti-RSV antibody, palivizumab, non-targeted control [reference compound]
- Kd [1, 15]: > 50 nM
- Kd [1, 16]: > 50 nM
- Kd [2, 15]: > 50 nM
- Kd [2, 16]: > 50 nM
- Mean Object Fluorescence (Internalized) ([3]; 0.3 nM): 2,686
- Mean Object Fluorescence (Internalized) ([3]; 1.9 nM): 3,054
- Mean Object Fluorescence (Internalized) ([3]; 12 nM): 1,989
- Mean Object Fluorescence (Internalized) ([3]; 70 nM): 2,605
- Mean Object Fluorescence (Internalized) ([4]; 0.3 nM): 2,746
- Mean Object Fluorescence (Internalized) ([4]; 1.9 nM): 2,363
- Mean Object Fluorescence (Internalized) ([4]; 12 nM): 2,331
- Mean Object Fluorescence (Internalized) ([4]; 70 nM): 2,290

Molecule: V22277-MCvcPABC-MMAE DAR 4.0: palivizumab (v22277) conjugated to MCvcPABC-MMAE at DAR 4, control [reference compound]
- EC50 ([5]; EBC-1, 4 days, Table 8.1, read-out: EC50): > 10 nM
- EC50 ([6]; H292, 4 days, Table 8.1, read-out: EC50): > 10 nM
- EC50 ([7]; BT-20, 4 days, Table 8.1, read-out: EC50): > 10 nM
- EC50 ([8]; H1975, 4 days, Table 8.1, read-out: EC50): > 10 nM
- EC50 ([9]; Table 8.1, read-out: EC50): > 10 nM
- EC50 [10]: > 10 nM
- EC50 [11]: > 10 nM

Molecule: CC[C@H](C)[C@@H]([C@@H](CC(=O)N1CCC[C@H]1[C@H](OC)[C@@H](C)C(=O)NS(=O)(=O)c1ccc(N)cc1)OC)N(C)C(=O)[C@@H](NC(=O)[C@H](C(C)C)N(C)C)C(C)C [Compound 1, (S)-N-((3R,4S,5S)-1-((S)-2-((1R,2R)-3-((4-aminophenyl)sulfonamido)-1-methoxy-2-methyl-3-oxopropyl)pyrrolidin-1-yl)-3-methoxy-5-methyl-1-oxoheptan-4-yl)-2-((S)-2-(dimethylamino)-3-methylbutanamido)-N,3-dimethylbutanamide]
- EC50 ([5]; Homo sapiens, EBC-1, 96 h): 26.3 nM
- EC50 ([5]; Homo sapiens, EBC-1, read-out: EC50 (nM) - DAR corrected): 44.4 nM
- EC50 ([6]; Homo sapiens, NCI-H292, 96 h, H292, 4 days, Table 9.1): 7.42 nM
- EC50 ([6]; Homo sapiens, NCI-H292, 96 h, H292, 4 days, Table 12.1): 7.42 nM
- EC50 ([6]; Homo sapiens, NCI-H292, read-out: EC50 (nM) - DAR corrected, H292, 4-5 days, Table 6.1): 22.2 nM
- EC50 ([7]; Homo sapiens, BT-20, read-out: EC50 (nM) - DAR corrected): 39.2 nM
- EC50 [12]: 43.6 nM
- EC50 ([8]; Homo sapiens, NCI-H1975, 96 h): 22.7 nM
- EC50 ([9]; Homo sapiens, SNU-5, 96 h, Table 9.1): 40 nM
- EC50 ([9]; Homo sapiens, SNU-5, 96 h, Table 12.1): 40.1 nM
- EC50 [13]: 44.8 nM

Molecule: telisotuzumab vedotin
- anti-tumour activity [14]: anti-tumour activity

Source: patent publication US20250222128A1, “ANTIBODY DRUG-CONJUGATES TARGETING C-MET AND METHODS OF USE THEREOF” (Zymeworks BC Inc., priority 2022, published 2025)
